Data published in PubChem BioAssay AID2784 (Sanford-Burnham Center for Chemical Genomics, 2010).
Calls of active or inactive are those of the source. No rule for the calls is given here.

Target: Apelin receptor (Homo sapiens) (UniProt P35414)
Experiment: apelin receptor inhibitors, concentration-response – cell-based, luminescence, uHTS hits, dose response (AID 2784)
Settings: APJ beta-arrestin recruitment, antagonist mode

Sequence of Apelin receptor (Homo sapiens) (P35414 whole entry, looked up): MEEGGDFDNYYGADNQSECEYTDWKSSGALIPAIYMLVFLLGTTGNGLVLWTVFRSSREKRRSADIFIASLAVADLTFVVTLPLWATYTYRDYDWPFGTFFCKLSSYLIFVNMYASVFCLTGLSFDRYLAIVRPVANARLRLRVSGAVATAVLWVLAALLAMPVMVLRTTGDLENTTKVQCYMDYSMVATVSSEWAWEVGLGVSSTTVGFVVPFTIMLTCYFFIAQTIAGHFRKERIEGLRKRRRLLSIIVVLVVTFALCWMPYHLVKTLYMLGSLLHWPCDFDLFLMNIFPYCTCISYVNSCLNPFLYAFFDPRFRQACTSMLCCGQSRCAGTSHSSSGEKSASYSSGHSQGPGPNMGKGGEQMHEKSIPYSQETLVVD

| Compound | IC50 |
| --- | --- |
| CN(/N=C/c1cc([N+](=O)[O-])ccc1O)c1ccccc1 | inactive |
| Cn1c(O)c(N=Nc2nc(-c3ccccc3)cs2)c2ccccc21 | > 40 µM (inactive) |
| COc1ccc2c(c1)C(=O)[C@H](O)[C@@H](c1ccc(OC)c(Br)c1)O2 | 3.07 µM |
| COC(=O)C1NN=C(C(=O)c2ccc(Cl)cc2)C1c1ccc(OC)cc1 (configuration not stated) | 7.27 µM |
| COc1ccc(NS(=O)(=O)c2cc([N+](=O)[O-])ccc2N/N=C\c2c(C)[nH]c3ccccc23)cc1 | > 40 µM (inactive) |
| Cc1ccc(NS(=O)(=O)c2cc([N+](=O)[O-])ccc2N/N=C/c2sc(N3CCOCC3)nc2-c2ccccc2)c(C)c1 | > 40 µM (inactive) |
| CCOCCOC(=O)C1=C(C)NC2=C(C(=O)CC(c3cccs3)C2)C1c1ccsc1 (configuration not stated) | > 40 µM (inactive) |
| CC1=NN(c2ccc(C)cc2)C(=O)/C1=C/c1ccc(-c2cc([N+](=O)[O-])ccc2O)o1 | > 40 µM (inactive) |
| COc1ccc2c(c1)C(=O)[C@@H](O)[C@H](c1ccc(OC)c(Br)c1)O2 | > 40 µM (inactive) |
| O=C(CCCC(=O)Nc1cccc(Br)c1)N/N=C/c1cc([N+](=O)[O-])ccc1O | inactive |
| CC1=Nc2ccccc2/C1=C/c1sc(=N)n(-c2nccs2)c1O | > 40 µM (inactive) |
| O=C(O)c1ccccc1N=Nc1c(O)[nH]c2ccc([N+](=O)[O-])cc12 | > 40 µM (inactive) |
| CCOC(=O)C1=C(C)NC2=C(C(=O)CC(c3cccs3)C2)C1c1cccs1 (configuration not stated) | inactive |
| CC1=NN(C(N)=S)C(=O)C1N=Nc1ccc([N+](=O)[O-])cc1 (configuration not stated) | > 40 µM (inactive) |
| Cc1ncc(CO)c(/C=N/Nc2ccc(C(F)(F)F)cn2)c1O | 9.42 µM |
| O=[N+]([O-])c1ccc(O)c(/C=N/Nc2ccc(Cl)nn2)c1 | 4.18 µM |
| CCOC(=O)C1=NNC(C(=O)c2ccc(Cl)cc2)C1c1ccccc1 (configuration not stated) | 10.6 µM |
